# Laboratory results from US9695155B2, “Herbicidal substituted pyrimidinyloxy benzene compounds” (E. I. DU PONT DE NEMOURS AND COMPANY, priority 2013, dated 2017).
# What was measured:
# pigweed = assay: Test D preemergence; assay type: in vivo, Amaranthus retroflexus; details: for pest or weed control at 16 g/ha / pest or weed control at 31 g/ha / pest or weed control at 62 g/ha / pest or weed control at 125 g/ha: Amaranthus retroflexus, pre-emergence; for pest or weed control at 16 g/ha: 16 g ai/ha; for pest or weed control at 16 g/ha / pest or weed control at 31 g/ha: read-out: Plant response rating, Pigweed; for pest or weed control at 62 g/ha: 62 g ai/ha; for pest or weed control at 62 g/ha / pest or weed control at 125 g/ha: scale 0-100, read-out: Plant response rating, Pigweed
# Method in brief: (§1)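 Greenhouse herbicide screen. Sowing into silt loam for preemergence application; foliar application to 2–18 cm seedlings in potting mix for postemergence. 0–100 visual control rating after 7–21 d.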
# wild mustard = assay: Test D preemergence; assay type: in vivo, Sinapis arvensis; details: for pest or weed control at 16 g/ha / pest or weed control at 31 g/ha / pest or weed control at 62 g/ha / pest or weed control at 125 g/ha: Brassica, pre-emergence; for pest or weed control at 16 g/ha: 16 g ai/ha, read-out: Plant response rating, Mustard, Wild; for pest or weed control at 31 g/ha / pest or weed control at 62 g/ha / pest or weed control at 125 g/ha: scale 0-100, read-out: Plant response rating, Mustard, Wild
# Method in brief: as §1
# wild radish = assay: Test D preemergence; assay type: in vivo, Raphanus raphanistrum; details: for pest or weed control at 16 g/ha / pest or weed control at 31 g/ha / pest or weed control at 62 g/ha / pest or weed control at 125 g/ha: Raphanus raphanistrum, pre-emergence; for pest or weed control at 16 g/ha: 16 g ai/ha; for pest or weed control at 16 g/ha / pest or weed control at 31 g/ha: read-out: Plant response rating, Radish, Wild; for pest or weed control at 62 g/ha: 62 g ai/ha; for pest or weed control at 62 g/ha / pest or weed control at 125 g/ha: scale 0-100, read-out: Plant response rating, Radish, Wild
# Method in brief: as §1
# bluegrass = assay: Test D postemergence; assay type: in vivo, Poa annua; details: Postemergence, scale 0 to 100 (0 no effect, 100 complete control); for pest or weed control at 16 g/ha / pest or weed control at 31 g/ha / pest or weed control at 62 g/ha / pest or weed control at 125 g/ha: Poa annua, post-emergence, read-out: Plant response rating, Bluegrass; for pest or weed control at 16 g/ha: 16 g ai/ha
# Method in brief: as §1
# blackgrass = assay: Test D postemergence; assay type: in vivo, Alopecurus myosuroides; details: Postemergence, scale 0 to 100 (0 no effect, 100 complete control); for pest or weed control at 16 g/ha: 16 g ai/ha
# Method in brief: as §1
# field poppy = assay: Test D postemergence; assay type: in vivo, Papaver rhoeas; details: for pest or weed control at 16 g/ha / pest or weed control at 31 g/ha / pest or weed control at 62 g/ha / pest or weed control at 125 g/ha: Papaver rhoeas, post-emergence; for pest or weed control at 16 g/ha: 16 g ai/ha, scale 0-100, read-out: Plant response rating, Field Poppy; for pest or weed control at 31 g/ha / pest or weed control at 62 g/ha / pest or weed control at 125 g/ha: read-out: Plant response rating, Field Poppy
# Method in brief: as §1
# deadnettle = assay: Test D postemergence; assay type: in vivo, Lamium amplexicaule; details: for pest or weed control at 16 g/ha / pest or weed control at 31 g/ha / pest or weed control at 62 g/ha / pest or weed control at 125 g/ha: Lamium amplexicaule, post-emergence; for pest or weed control at 16 g/ha: 16 g ai/ha, scale 0-100, read-out: Plant response rating, Deadnettle; for pest or weed control at 31 g/ha / pest or weed control at 62 g/ha / pest or weed control at 125 g/ha: read-out: Plant response rating, Deadnettle
# Method in brief: as §1
# spring barley = assay: Test D postemergence; assay type: in vivo, Hordeum vulgare; details: Postemergence, scale 0 to 100 (0 no effect, 100 complete control); for plant injury at 16 g/ha / plant injury at 31 g/ha / plant injury at 62 g/ha / plant injury at 125 g/ha: Hordeum vulgare, post-emergence, read-out: Plant response rating, Barley, Spring; for plant injury at 16 g/ha: 16 g ai/ha
# Method in brief: as §1
# winter barley = assay: Test D postemergence; assay type: in vivo, Hordeum vulgare; details: Postemergence, scale 0 to 100 (0 no effect, 100 complete control); for plant injury at 16 g/ha / plant injury at 31 g/ha / plant injury at 62 g/ha / plant injury at 125 g/ha: Hordeum vulgare, post-emergence, read-out: Plant response rating, Barley, Winter; for plant injury at 16 g/ha: 16 g ai/ha
# Method in brief: as §1
# [1] = scale 0 (no effect) to 100 (complete control)
# [2] = 31 g ai/ha, scale 0 (no effect) to 100 (complete control)
# [3] = Alopecurus myosuroides, post-emergence, 62 g ai/ha, read-out: Plant response rating, Blackgrass
# [4] = Alopecurus myosuroides, post-emergence, read-out: Plant response rating, Blackgrass
# [5] = Alopecurus myosuroides, post-emergence, 31 g ai/ha, read-out: Plant response rating, Blackgrass
# [6] = 31 g ai/ha, scale 0 to 100 (0 no effect, 100 complete control)
# [7] = 62 g ai/ha, scale 0 to 100 (0 no effect, 100 complete control)
# [8] = 125 g ai/ha, scale 0 to 100 (0 no effect, 100 complete control)
# [9] = 250 g ai/ha, scale 0 to 100 (0 no effect, 100 complete control)
structure (smiles),measurement,setting,value
"FC(F)(F)c1cn(-c2ccccc2Oc2ncc(Cl)cn2)nn1 [Compound 166, 5-chloro-2-[2-[4-(trifluoromethyl)-1H-1,2,3-triazol-1-yl]phenoxy]pyrimidine]",pest or weed control at 16 g/ha,pigweed; [1],100%
same,pest or weed control at 31 g/ha,pigweed; [2],100%
same,pest or weed control at 62 g/ha,pigweed,100%
same,pest or weed control at 125 g/ha,pigweed; 125 g ai/ha,100%
same,pest or weed control at 16 g/ha,wild mustard; [1],65%
same,pest or weed control at 31 g/ha,wild mustard; 31 g ai/ha,95%
same,pest or weed control at 62 g/ha,wild mustard; 62 g ai/ha,100%
same,pest or weed control at 125 g/ha,wild mustard; 125 g ai/ha,100%
same,pest or weed control at 16 g/ha,wild radish; [1],55%
same,pest or weed control at 31 g/ha,wild radish; [2],80%
same,pest or weed control at 62 g/ha,wild radish,100%
same,pest or weed control at 125 g/ha,wild radish; 125 g ai/ha,100%
same,pest or weed control at 16 g/ha,bluegrass,20%
same,pest or weed control at 31 g/ha,bluegrass; 31 g ai/ha,40%
same,pest or weed control at 62 g/ha,bluegrass; 62 g ai/ha,55%
same,pest or weed control at 125 g/ha,bluegrass; 125 g ai/ha,65%
same,pest or weed control at 62 g/ha,blackgrass; [3],40%
same,pest or weed control at 16 g/ha,blackgrass; [4],15%
same,pest or weed control at 31 g/ha,blackgrass; [5],20%
same,pest or weed control at 125 g/ha,"blackgrass; Alopecurus myosuroides, post-emergence, 125 g ai/ha, read-out: Plant response rating, Blackgrass",65%
same,pest or weed control at 16 g/ha,field poppy,40%
same,pest or weed control at 31 g/ha,field poppy; [6],60%
same,pest or weed control at 62 g/ha,field poppy; [7],80%
same,pest or weed control at 125 g/ha,field poppy; [8],75%
same,pest or weed control at 16 g/ha,deadnettle,40%
same,pest or weed control at 31 g/ha,deadnettle; [6],60%
same,pest or weed control at 62 g/ha,deadnettle; [7],65%
same,pest or weed control at 125 g/ha,deadnettle; [8],70%
same,plant injury at 16 g/ha,spring barley,10%
same,plant injury at 31 g/ha,spring barley; 31 g ai/ha,20%
same,plant injury at 62 g/ha,spring barley; 62 g ai/ha,30%
same,plant injury at 125 g/ha,spring barley; 125 g ai/ha,45%
same,plant injury at 16 g/ha,winter barley,5%
same,plant injury at 31 g/ha,winter barley; 31 g ai/ha,15%
same,plant injury at 62 g/ha,winter barley; 62 g ai/ha,25%
same,plant injury at 125 g/ha,winter barley; 125 g ai/ha,35%
"Fc1cccc(Oc2ncc(Cl)cn2)c1-n1cc(Br)cn1 [Compound 178, 2-[2-(4-bromo-1H-pyrazol-1-yl)-3-fluorophenoxy]-5-chloropyrimidine]",pest or weed control at 16 g/ha,pigweed; [1],75%
same,pest or weed control at 31 g/ha,pigweed; [2],100%
same,pest or weed control at 62 g/ha,pigweed,100%
same,pest or weed control at 125 g/ha,pigweed; 125 g ai/ha,100%
same,pest or weed control at 16 g/ha,wild mustard; [1],25%
same,pest or weed control at 31 g/ha,wild mustard; 31 g ai/ha,35%
same,pest or weed control at 62 g/ha,wild mustard; 62 g ai/ha,95%
same,pest or weed control at 125 g/ha,wild mustard; 125 g ai/ha,95%
same,pest or weed control at 16 g/ha,wild radish; [1],55%
same,pest or weed control at 31 g/ha,wild radish; [2],90%
same,pest or weed control at 62 g/ha,wild radish,100%
same,pest or weed control at 125 g/ha,wild radish; 125 g ai/ha,100%
same,pest or weed control at 16 g/ha,bluegrass,20%
same,pest or weed control at 31 g/ha,bluegrass; 31 g ai/ha,30%
same,pest or weed control at 62 g/ha,bluegrass; 62 g ai/ha,35%
same,pest or weed control at 125 g/ha,bluegrass; 125 g ai/ha,55%
same,pest or weed control at 62 g/ha,blackgrass; [3],25%
same,pest or weed control at 16 g/ha,blackgrass; [4],5%
same,pest or weed control at 31 g/ha,blackgrass; [5],10%
same,pest or weed control at 16 g/ha,field poppy,45%
same,pest or weed control at 31 g/ha,field poppy; [6],55%
same,pest or weed control at 62 g/ha,field poppy; [7],65%
same,pest or weed control at 125 g/ha,field poppy; [8],75%
same,pest or weed control at 16 g/ha,deadnettle,40%
same,pest or weed control at 31 g/ha,deadnettle; [6],45%
same,pest or weed control at 62 g/ha,deadnettle; [7],50%
same,pest or weed control at 125 g/ha,deadnettle; [8],65%
same,plant injury at 16 g/ha,spring barley,0%
same,plant injury at 31 g/ha,spring barley; 31 g ai/ha,5%
same,plant injury at 62 g/ha,spring barley; 62 g ai/ha,5%
same,plant injury at 125 g/ha,spring barley; 125 g ai/ha,10%
same,plant injury at 16 g/ha,winter barley,0%
same,plant injury at 31 g/ha,winter barley; 31 g ai/ha,0%
same,plant injury at 62 g/ha,winter barley; 62 g ai/ha,5%
same,plant injury at 125 g/ha,winter barley; 125 g ai/ha,10%
N#Cc1cccc(Oc2ncc(Cl)cn2)c1-n1cc(-n2ccc(C(F)(F)F)n2)cn1 [Compound 284],"Plant response rating, Pigweed",pigweed; [2],75
same,"Plant response rating, Pigweed","pigweed; 125 g ai/ha, scale 0-100",100
same,"Plant response rating, Pigweed","pigweed; 250 g ai/ha, scale 0-100",100
same,"Plant response rating, Mustard, Wild",wild mustard; [2],15
same,"Plant response rating, Mustard, Wild","wild mustard; 62 g ai/ha, scale 0-100",15
same,"Plant response rating, Mustard, Wild","wild mustard; 125 g ai/ha, scale 0-100",90
same,"Plant response rating, Mustard, Wild","wild mustard; 250 g ai/ha, scale 0-100",100
same,"Plant response rating, Radish, Wild",wild radish; [2],0
same,"Plant response rating, Radish, Wild","wild radish; 125 g ai/ha, scale 0-100",0
same,"Plant response rating, Radish, Wild","wild radish; 250 g ai/ha, scale 0-100",35
same,"Plant response rating, Bluegrass",bluegrass; 62 g ai/ha,35
same,"Plant response rating, Bluegrass",bluegrass; 31 g ai/ha,25
same,"Plant response rating, Bluegrass",bluegrass; 125 g ai/ha,40
same,"Plant response rating, Bluegrass",bluegrass; 250 g ai/ha,45
same,"Plant response rating, Blackgrass",blackgrass; 62 g ai/ha,25
same,"Plant response rating, Blackgrass",blackgrass; 31 g ai/ha,20
same,"Plant response rating, Blackgrass",blackgrass; 125 g ai/ha,30
same,"Plant response rating, Blackgrass",blackgrass; 250 g ai/ha,35
same,"Plant response rating, Field Poppy","field poppy; 31 g ai/ha, scale 0-100",65
same,"Plant response rating, Field Poppy",field poppy; [7],70
same,"Plant response rating, Field Poppy",field poppy; [8],100
same,"Plant response rating, Field Poppy",field poppy; [9],100
same,"Plant response rating, Deadnettle","deadnettle; 31 g ai/ha, scale 0-100",70
same,"Plant response rating, Deadnettle",deadnettle; [7],100
same,"Plant response rating, Deadnettle",deadnettle; [8],100
same,"Plant response rating, Deadnettle",deadnettle; [9],100
same,"Plant response rating, Barley, Spring",spring barley; 62 g ai/ha,15
same,"Plant response rating, Barley, Spring",spring barley; 31 g ai/ha,5
same,"Plant response rating, Barley, Spring",spring barley; 125 g ai/ha,20
same,"Plant response rating, Barley, Spring",spring barley; 250 g ai/ha,25
same,"Plant response rating, Barley, Winter",winter barley; 62 g ai/ha,15
same,"Plant response rating, Barley, Winter",winter barley; 31 g ai/ha,15
same,"Plant response rating, Barley, Winter",winter barley; 125 g ai/ha,20
same,"Plant response rating, Barley, Winter",winter barley; 250 g ai/ha,25
